These results are taken from ChEMBL document CHEMBL6087446, “Hypoxia Activated Nitric Oxide Donor Compounds for the Prevention and Treatment of Myocardial Hypoxia-Induced Injury” (J Med Chem, 2025).

SMILES strings stand for the structures. Activity calls are given as the source filed them. The rule behind the calls is not given here.

A short description of data set [1]: Induction of NO release in rat H9c2 cells at 10 uM by Griess reagent assay relative to control. It is filed as functional.
The subject of data set [2] is H9c2. The experiment in a line: Induction of NO release in rat H9c2 cells under hypoxia condition at 10 uM by Griess reagent assay relative to control. It is filed as functional. In general terms: Nitrite, measured by Griess reagent, commonly stands in for NO production.
For data set [3], the system named is H9c2. The experiment in a line: Induction of NO release in rat H9c2 cells under hypoxia condition at 10 uM measured for first 30 mins by Griess reagent assay relative to control. It is filed as functional. Conditions: 0.5 h.
In data set [4] the test system is H9c2. The experiment in a line: Prevention of hypoxia-induced decrease cell viability of rat H9c2 cells at 10 uM by CCK8 assay. It is filed as functional, cell-based. In general terms: Tetrazolium dyes change colour on reduction, which living cells bring about.
The subject of data set [5] is H9c2. The experiment in a line: Prevention of hypoxia-induced decrease in ATP level in rat H9c2 cells at 10 uM […] (Rvb =- 19.6 nmol/mg). It is filed as ADME, cell-based. Conditions: h9c2, 10 µM.
Data set [6] concerns H9c2. The experiment in a line: Prevention of hypoxia-induced apoptosis in rat H9c2 cells assessed as decrease in late apoptosis and necrosis by measuring reduced red fluorescence at 10 uM incubated for 4 hrs by confocal microscopy with Annexin V-FITC and propidium iodide (PI) double staining analysis. It is filed as functional, cell-based.
The test system of data set [7] is H9c2. The experiment in a line: Prevention of hypoxia-induced apoptosis in rat H9c2 cells assessed as decrease in early apoptosis by measuring reduced green fluorescence at 10 uM incubated for 4 hrs by confocal microscopy with Annexin V-FITC and propidium iodide (PI) double staining analysis. It is filed as functional, cell-based.
The test system of data set [8] is Mus musculus. The experiment in a line: Prevention of myocardial hypoxia injury in isoproterenol-induced male C57 mouse myocardial injury model assessed as heart weight ratio at 5 mg/kg, ip once daily for 3 consecutive days (reference value: 0.60%). Particulars: time 3 day. It is filed as functional.
Data set [9] relates to Mus musculus. The experiment in a line: Prevention of myocardial hypoxia injury in isoproterenol-induced male C57 mouse myocardial injury model assessed as pathological myocardial change by cell damage at 5 mg/kg, ip once daily for 3 consecutive days by hematoxylin and eosin staining based analysis. It is filed as functional, organism-based. Conditions: time 3.0 day.
In data set [10] the test system is Mus musculus. The experiment in a line: Prevention of myocardial hypoxia injury in isoproterenol-induced male C57 mouse myocardial injury model assessed as prevention of lamellar collagen fiber deposition at 5 mg/kg, ip once daily for 3 consecutive days by Masson staining based analysis. It is filed as functional, organism-based. Conditions: time 3.0 day.
The test system of data set [11] is Mus musculus. The experiment in a line: Prevention of myocardial hypoxia injury in isoproterenol-induced male C57 mouse myocardial injury model assessed as decrease in myocardial size at 5 mg/kg, ip once daily for 3 consecutive days (reference value: 6.47 mm). It is filed as functional. Particulars: time 3 day.
Data set [12] relates to Mus musculus. The experiment in a line: Prevention of myocardial hypoxia injury in isoproterenol-induced male C57 mouse myocardial injury model assessed as decrease in heart weight ratio at 5 mg/kg, ip once daily for 3 consecutive days (reference value: 0.68%). It is filed as functional. On the set-up: scale not given: the % may be the effect or the level left. Conditions: time 3 day.

The subject of data set [13] is Mus musculus. The experiment in a line: Prevention of myocardial hypoxia injury in isoproterenol-induced male C57 mouse myocardial injury model assessed as pathological myocardial change by measuring myocardial cell damage at 5 mg/kg, IG once daily for 3 consecutive days by hematoxylin and eosin staining based analysis. It is filed as functional, organism-based. Conditions: time 3.0 day.

For data set [14], the system named is Mus musculus. The experiment in a line: Prevention of myocardial hypoxia injury in isoproterenol-induced male C57 mouse myocardial injury model assessed as prevention of lamellar collagen fiber deposition at 5 mg/kg, IG once daily for 3 consecutive days by Masson staining based analysis. Particulars: time 3.0 day. It is filed as functional, organism-based.

For data set [15], the system named is Mus musculus. The experiment in a line: Prevention of myocardial hypoxia injury in isoproterenol-induced male C57 mouse myocardial injury model assessed as prevention of bundle collagen fiber deposition at 5 mg/kg, IG once daily for 3 consecutive days by Masson staining based analysis. It is filed as functional, organism-based. Particulars: time 3.0 day.
Data set [16] concerns Mus musculus. The experiment in a line: Prevention of myocardial hypoxia injury in isoproterenol-induced male C57 mouse myocardial injury model assessed as decrease in ACE expression at 5 mg/kg, IG once daily for 3 consecutive days by immunohistochemistry. Particulars: time 3.0 day. It is filed as functional, organism-based.
The subject of data set [17] is Mus musculus. The experiment in a line: Prevention of myocardial hypoxia injury in isoproterenol-induced male C57 mouse myocardial injury model assessed as decrease in mTORC1 expression at 5 mg/kg, IG once daily for 3 consecutive days by immunohistochemistry. It is filed as functional, organism-based. Conditions: time 3.0 day.
The nature of data set [18]: Toxicity in male C57 mouse assessed as adverse effect at 405 mg/kg, ip measured up to 14 days observation period. It is filed as organism-based. Particulars: in vivo, 336 h, time < 14 day.

On to `Cc1cc([N+](=O)[O-])ccc1COc1ccc(N(C)N=O)cc1`, for which the Activity in [1] is reported as under 5%. Further, the result with H9c2 [2] was Active.

Molecule `Cc1ccc([N+](=O)[O-])c(COc2ccc(N(C)N=O)cc2)c1` came in with an Activity in data set [1] of under 5%.

In the case of `Cc1ccc(COc2ccc(N(C)N=O)cc2)c([N+](=O)[O-])c1`, in data set [1], the Activity is on record as under 5%.

For `CN(N=O)c1ccc(OCc2cc(Cl)ccc2[N+](=O)[O-])cc1`, the Activity in data set [1] was under 5%.

`CN(N=O)c1ccc(OCc2ccc(Br)cc2[N+](=O)[O-])cc1` registered an Activity in [1] of under 5%.

Take `CN(N=O)c1ccc(OCc2ccc([N+](=O)[O-])cc2Cl)cc1`: the Activity in [1] is recorded as under 5%. Moreover, in the data set with H9c2 [2], the outcome was Active.

`CN(N=O)c1ccc(OCc2ccc(Cl)cc2[N+](=O)[O-])cc1` yielded an Activity in [1] of under 5%.

As to `CN(N=O)c1ccc(OCc2ccc([N+](=O)[O-])cc2)cc1`, the Activity in data set [1] is given as under 5%. Also, in the data set on H9c2 [2], the result was Active.

As to `O=[N+]([O-])O[C@@H]1CO[C@H]2[C@@H]1OC[C@@H]2O` [ISOSORBIDE MONONITRATE], the Activity is listed as about 30% in the data set with H9c2 [3]; “Active; Partially Restores Cell Viability” in the data set on H9c2 [4]; 25.3 nmol/mg in the data set on H9c2 [5]; “Active; Reduced Red Fluorescence To Certain Extents” in the data set with H9c2 [6]; 0.55% in the data set on Mus musculus [8]; 3.93 mm in the data set on Mus musculus [11]. The Activity with Mus musculus [12] was 0.61%; in the data set with Mus musculus [14] it was “Active; N6 More Efficacious Than Ismn”; in the data set on Mus musculus [15] it was “Active; N6 More Efficacious Than Ismn”; in [18], “Toxic”. The outcome with H9c2 [7], with Mus musculus [16] and in the data set on Mus musculus [17] was Active. The result in the data set with Mus musculus [9], in the data set on Mus musculus [10] and in the data set with Mus musculus [13] was inactive.

`CN(N=O)c1ccc(OCc2c(Cl)cccc2[N+](=O)[O-])cc1`: in [1], the Activity is recorded as under 5%. Also, the outcome in the data set on H9c2 [2] was Active.

`Cc1cc(COc2ccc(N(C)N=O)cc2)ccc1[N+](=O)[O-]` returned an Activity in data set [1] of under 5%.

As for `CN(N=O)c1ccc(OCc2ccccc2[N+](=O)[O-])cc1`, the Activity in data set [1] is reported as under 5%. In addition, the outcome with H9c2 [2] was Active.
